Results published in patent US7569695B2, “Dyes for the detection or quantification of desirable target molecules” (Enzo Life Sciences, Inc., priority 2005, dated 2009).

What was measured:
[1] = tested on: anti-sense C amplicon; test: Amplification of various amounts of target with fixed dye levels, 29 cycles (Example 37); format: biochemical; details: 1:1000 dilution of SYBR Green
Experimental: In the previous experiments, a fixed amount of target was amplified in the presence of varying level of dyes. The eventual use of these dyes is going to be with a fixed amount of dye and varying levels of targets. As such, an experiment was carried out using previously determined optimal levels of dyes and various amounts of input target (again using the anti-sense C as a model). • Dilution 1=1:100,000 • Dilution 2=1:1,000,000 • Dilution 3=1:10,000,000 • Dilution 4=1:100,000,000 • Dilution 5=1:1,000,000,000 • Dilution 6=1:10,000,000,000
Selected amounts of target template were amplified on the Light Cycler (Roche) in the presence of various amounts of Dye 122, Dye 109a and SYBR Green.
A master mixture was made up of: • 380 l of 2×PCR mix described in Example 33 • 15.2 l of 25 mM MgCl2 • 190.0 l of DEPC treated H2O • 7.6 l of 10 mg/ml BSA (New England Biolabs, Beverly, Mass.) • 7.6 l Taq polymease (Perkin Elmer)+7.6 l of TaqStart (Clontech)
2.0 l of target template (1:50,000 dilution of the antisense C amplicon)+2.0 l of various dye concentrations were added to 16 µl of Master mixture and amplified as described previously in Example 33 stopping after 29 cycles. Dye additions were from the 1:1000 dilution of SYBR Green, 1:30 of Dye 109a and 1:30 of Dye 122.
At the highest input level (Dil 2 1:1,000,000 dilution of amplicon) no evidence of amplification is seen in the sample without dye.

[2] = tested on: 78 bp amplicon from the anti-sense C construct; test: Amplification of nucleic acids on the Light Cycler in the presence of dye (Example 33); format: biochemical
Experimental: A target template was amplified on the Light Cycler (Roche) in the presence of various amounts of Dye 109 from Example 14. As a control, various amounts of SYBR Green (Molecular Probes, Eugene, Oreg.) were also included. The template was a 1:500 dilution of a 78 bp amplicon made in a previous reaction from the anti-sense C construct described in Liu et al. 1997 (J. Virol. 71: 4079-4085). A 2×PCR mix was made up of 20 mM Tris pH 8.3, 50 mM KCl, 4 mM MgCl2, 0.4 mM dCTP, 0.4 mM dGTP, 0.4 mM dATP, 0.8 mM dUTP, […] and […].
The Forward Primer sequence is comprised of 20 nucleotides: 5′ […] 3′ (SEQ ID NO: 1). It is an artificial sequence comprising a fusion of human Ul and HIV sequences. Bases 1-7 (CATGATC) of the first sequence are derived from plasmid pHSD-4 and comprise sequences from the human Ul gene. Bases […] (GATCCGGATGGGAGGTG) of the second sequence are derived from a region of the BAL strain of HIV containing the Tat/Rev splice acceptor site.
The Reverse Primer sequence is comprised of 22 nucleotides: 5′[…] (SEQ ID NO: 2). It is an artificial sequence comprising a fusion of human Ul and HIV sequences. Bases 1-11 (GCACATCCGGA) of the first sequence are derived from plasmid pHSD-4 and comprise sequences from the human Ul gene. Bases […] (GATCCGGATGGGAGGTG) of the second sequence are derived from a region of the BAL strain of HIV containing the Tat/Rev splice acceptor site.
The 78 bp amplicon synthesized with Forward Primer (SEQ ID NO: 1) and Reverse Primer (SEQ ID NO: 2) has the following sequence: 5′ […] 3′ (SEQ ID NO: 3). It is an artificial sequence comprising a fusion of human Ul and HIV sequences. Bases 1-11 (GCACATCCGGA) and 68-78 (TCCGGATGTGC) are derived from plasmid pHSD-4 and comprise sequences from the human Ul gene. Bases […] are derived from a region of the BAL strain of HIV containing the Tat/Rev splice acceptor site.
A master mixture was made up of: • 350 µl of 2×PCR mix described above • 14 µl of 25 mM MgCl2 • 122.5 µl of DEPC treated H2O • 14 ul of 1 u/l ung (Epicentre) • 7 µl of 10 mg/ml BSA (New England Biolabs, Beverly, Mass.) • 7 l Taq polymease (Perkin Elmer)+7 µl of TaqStart (Clontech) • 2.5 µl of target template+2.0 l of various dilutions of dyes were added to 15.5 µl of Master mixture, incubated at 45° C. for 10 minutes and then amplified by: • 1) Melting • 2 minutes @ 95° C. • 2) Cycling • a) Denaturation step: 0 seconds @ 95° C. • b) Annealing step: 5 seconds @ 69° C. for first cycle; subsequent cycles were each reduced by 0.5° C. until 65° C. was reached and all annealing steps in further cycles were carried out at this temperature • c) Extension step: 5 seconds @ 72° C. • 3) After completion of 56 cycles, all samples were maintained at 4° C. until analyzed.
After the amplification reactions were finished, the samples were analyzed by gel electrophoresis. For SYBR Green, the recommended reaction concentration is 1:10,000. As such, the amplification products shown in lanes 5 and 6 using 2 l of […] dilution in a 20 l reaction (final=1:8,000) is approximately representative of the product from the standard procedure. For Dye 109, the reactions are listed in terms of dilutions of a stock of Dye 109 with an OD reading of 200 taken at 495 nm. […] However, when lower dilutions of the dyes were added there was no inhibition of the process.

[3] = 1:200 dilution of SYBR Green, lane 7

In the case of `CCCN(CCCN(C)C)c1cc(/C=C2/Sc3ccccc3N2C)c2ccccc2[n+]1-c1ccccc1` [SYBR Green, reference compound], the “amplification product (gel analysis, FIG. 5)” value ([1]; Dil 2 (1:1,000,000) target input) is reported as “faint but visible band”, the “amplification product (gel analysis, FIG. 5)” value ([1]; further dilutions of target) is reported as “do not show any evidence of an amplification product” and the “amplification (gel analysis, FIG. 1)” value ([2]; 1:20 dilution of SYBR Green, 56 cycles) is reported as “strong inhibition of amplification”. The “synthesis of non-target derived amplicons” value [2, 3] was “elimination or suppression of the synthesis of non-target derived amplicons” and the “synthesis of target derived amplicons compared to the reaction without any dye” value [2, 3] was “enhancement of overall synthesis of target derived amplicons”.
